Data on 26 molecules can be found in patent US20140243335A1, “SUBSTITUTED HYDOXAMIC ACIDS AND USES THEREOF” (Millennium Pharmaceuticals, Inc., priority 2010, published 2014).

In the experiment the target is T1, purified human HDAC6 (Homo sapiens, UniProt Q9UBN7).
T1 construct: purchased BPS Bioscience 5006
T1 sequence (Q9UBN7 1-1215): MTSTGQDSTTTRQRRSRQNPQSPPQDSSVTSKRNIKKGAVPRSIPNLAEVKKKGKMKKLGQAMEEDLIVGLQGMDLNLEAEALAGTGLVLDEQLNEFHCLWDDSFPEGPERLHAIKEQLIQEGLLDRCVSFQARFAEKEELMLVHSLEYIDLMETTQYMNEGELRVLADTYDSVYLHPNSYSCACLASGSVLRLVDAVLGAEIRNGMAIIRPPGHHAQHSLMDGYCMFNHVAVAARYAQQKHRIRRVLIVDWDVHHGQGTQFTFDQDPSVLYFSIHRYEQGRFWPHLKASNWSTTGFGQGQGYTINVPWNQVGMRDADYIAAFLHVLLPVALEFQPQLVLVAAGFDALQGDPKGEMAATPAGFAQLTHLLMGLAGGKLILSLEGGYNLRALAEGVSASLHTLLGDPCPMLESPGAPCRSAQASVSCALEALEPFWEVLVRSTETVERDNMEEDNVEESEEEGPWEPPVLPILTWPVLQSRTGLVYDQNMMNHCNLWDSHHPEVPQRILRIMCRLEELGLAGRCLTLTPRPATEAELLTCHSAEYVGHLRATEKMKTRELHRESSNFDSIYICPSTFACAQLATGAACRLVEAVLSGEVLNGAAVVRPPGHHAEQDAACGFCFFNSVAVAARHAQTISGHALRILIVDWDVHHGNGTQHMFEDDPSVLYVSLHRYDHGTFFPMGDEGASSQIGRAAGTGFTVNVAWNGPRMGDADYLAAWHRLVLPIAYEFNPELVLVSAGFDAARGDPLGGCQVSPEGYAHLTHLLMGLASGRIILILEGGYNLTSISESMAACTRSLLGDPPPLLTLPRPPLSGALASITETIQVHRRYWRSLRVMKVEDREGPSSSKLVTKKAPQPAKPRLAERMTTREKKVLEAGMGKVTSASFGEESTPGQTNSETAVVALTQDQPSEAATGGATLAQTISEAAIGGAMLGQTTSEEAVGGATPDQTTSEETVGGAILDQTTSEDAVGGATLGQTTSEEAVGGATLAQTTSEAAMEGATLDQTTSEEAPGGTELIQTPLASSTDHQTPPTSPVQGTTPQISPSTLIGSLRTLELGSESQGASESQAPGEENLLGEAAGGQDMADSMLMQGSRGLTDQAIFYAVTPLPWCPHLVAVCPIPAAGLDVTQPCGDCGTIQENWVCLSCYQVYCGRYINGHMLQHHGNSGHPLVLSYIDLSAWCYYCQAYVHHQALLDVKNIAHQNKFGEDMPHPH
Put plainly: HDAC6 Enzyme Assay. The format is biochemical. Particulars: HDAC6 inhibition at a compound concentration of 0.412 μM; read-out: Percent Inhibition at 0.412 μM. How it is done:
To measure the inhibition of HDAC6 activity, purified human HDAC6 (BPS Bioscience; Cat. No. 5006) is incubated with substrate Ac-Arg-Gly-Lys(Ac)-AMC peptide (Bachem Biosciences; Cat. No. I-1925) for 1 hour at 30° C. in the presence of test compounds or vehicle DMSO control. The reaction is stopped with the HDAC inhibitor trichostatin A (Sigma; Cat. No. T8552) and the amount of Arg-Gly-Lys-AMC generated is quantitated by digestion with trypsin (Sigma; Cat. No. T1426) and subsequent measurement of the amount of AMC released using a fluorescent plate reader (Pherastar; BMG Technologies) set at Ex 340 nm and Em 460 nm. Concentration response curves are generated by calculating the fluorescence increase in test compound-treated samples relative to DMSO-treated controls, and enzyme inhibition (IC50) values are determined from those curves.
On to `O=C(Cc1c(F)cccc1F)NC1CCCc2cc(C(=O)NO)ccc21` (centres unmarked) [Compound I-1, 5-{[(2,6-difluorophenyl)acetyl]amino}-N-hydroxy-5,6,7,8-tetrahydronaphthalene-2-carboxamide], for which the inhibition (as a rule, the drop in the measured response relative to a control, in per cent) at 0.412 µM turned out to be 34%. Then `CCc1cc(C(=O)NC2CCCc3cc(C(=O)NO)ccc32)n(C)n1` (centres unmarked) [Compound I-2, 3-ethyl-N-{6-[(hydroxyamino)carbonyl]-1,2,3,4-tetrahydronaphthalen-1-yl}-1-methyl-1H-pyrazole-5-carboxamide], with 35%. The figure for `O=C(NO)c1ccc2c(c1)CCCC2NC(=O)c1ccsc1` (centres unmarked) [Compound I-3, N-{6-[(hydroxyamino)carbonyl]-1,2,3,4-tetrahydronaphthalen-1-yl}thiophene-3-carboxamide] is 36%; for `CC(C)(C)CC(=O)NC1CCCc2cc(C(=O)NO)ccc21` (centres unmarked) [Compound I-5, 5-[(3,3-dimethylbutanoyl)amino]-N-hydroxy-5,6,7,8-tetrahydronaphthalene-2-carboxamide] it is 11%. The figure for `CC(C)(C)C(=O)NC1CCCc2cc(C(=O)NO)ccc21` (centres unmarked) [Compound I-6, 5-[(2,2-dimethylpropanoyl)amino]-N-hydroxy-5,6,7,8-tetrahydronaphthalene-2-carboxamide] is 18%.

As for `Cc1nc(C(F)(F)F)c(C(=O)NC2CCCc3cc(C(=O)NO)ccc32)s1` (centres unmarked) [Compound I-7, N-{6-[(hydroxyamino)carbonyl]-1,2,3,4-tetrahydronaphthalen-1-yl}-2-methyl-4-(trifluoromethyl)-1,3-thiazole-5-carboxamide], the inhibition at 0.412 µM came to 22%.

For `O=C(NO)c1ccc2c(c1)CCCC2NC(=O)c1cccc(C(F)(F)F)c1` (centres unmarked) [Compound I-8, N-hydroxy-5-{[3-(trifluoromethyl)benzoyl]amino}-5,6,7,8-tetrahydronaphthalene-2-carboxamide], the inhibition at 0.412 µM turned out to be 33%. Then `O=C(NO)c1ccc2c(c1)CCCC2NC(=O)c1cnc2ccccc2n1` (centres unmarked) [Compound I-9, N-{6-[(hydroxyamino)carbonyl]-1,2,3,4-tetrahydronaphthalen-1-yl}quinoxaline-2-carboxamide], with 47%. The figure for `O=C(Cc1ccc(C(F)(F)F)cc1)NC1CCCc2cc(C(=O)NO)ccc21` (centres unmarked) [Compound I-10, N-hydroxy-5-({[4-(trifluoromethyl)phenyl]acetyl}amino)-5,6,7,8-tetrahydronaphthalene-2-carboxamide] is 20%; for `Cc1cc(C)n(CC(=O)NC2CCCc3cc(C(=O)NO)ccc32)n1` (centres unmarked) [Compound I-11, 5-{[(3,5-dimethyl-1H-pyrazol-1-yl)acetyl]amino}-N-hydroxy-5,6,7,8-tetrahydronaphthalene-2-carboxamide] it is 21%. On to `O=C(NO)c1ccc2c(c1)CCCC2NC(=O)c1cc(C(F)(F)F)cc(C(F)(F)F)c1` (centres unmarked) [Compound I-12, 5-{[3,5-bis(trifluoromethyl)benzoyl]amino}-N-hydroxy-5,6,7,8-tetrahydronaphthalene-2-carboxamide], for which the inhibition at 0.412 µM stood at 15%. For `O=C(NO)c1ccc2c(c1)CCCC2NC(=O)C(C1CCCCC1)C1CCCCC1` (centres unmarked) [Compound I-13, 5-[(dicyclohexylacetyl)amino]-N-hydroxy-5,6,7,8-tetrahydronaphthalene-2-carboxamide], the inhibition at 0.412 µM stood at 10%. The figure for `CC(C)(Oc1ccccc1Cl)C(=O)NC1CCCc2cc(C(=O)NO)ccc21` (centres unmarked) [Compound I-14, 5-{[2-(2-chlorophenoxy)-2-methylpropanoyl]amino}-N-hydroxy-5,6,7,8-tetrahydronaphthalene-2-carboxamide] is 79%. The figure for `CCC(C)(C)C(=O)NC1CCCc2cc(C(=O)NO)ccc21` (centres unmarked) [Compound I-15, 5-[(2,2-dimethylbutanoyl)amino]-N-hydroxy-5,6,7,8-tetrahydronaphthalene-2-carboxamide] is 11%; for `CC(C)(C)c1ccc(C(=O)NC2CCCc3cc(C(=O)NO)ccc32)cc1` (centres unmarked) [Compound I-16, 5-[(4-tert-butylbenzoyl)amino]-N-hydroxy-5,6,7,8-tetrahydronaphthalene-2-carboxamide] it is 55%. In the case of `O=C(NO)c1ccc2c(c1)CCCC2NC(=O)C1CCCCC1` (centres unmarked) [Compound I-17, 5-[(cyclohexylcarbonyl)amino]-N-hydroxy-5,6,7,8-tetrahydronaphthalene-2-carboxamide], the inhibition at 0.412 µM worked out at 19%. The figure for `Cn1cccc1C(=O)NC1CCCc2cc(C(=O)NO)ccc21` (centres unmarked) [Compound I-18, N-{6-[(hydroxyamino)carbonyl]-1,2,3,4-tetrahydronaphthalen-1-yl}-1-methyl-1H-pyrrole-2-carboxamide] is 34%. Then `Cc1cc(C(=O)NC2CCCc3cc(C(=O)NO)ccc32)n(C(C)(C)C)n1` (centres unmarked) [Compound I-19, 1-tert-butyl-N-{6-[(hydroxyamino)carbonyl]-1,2,3,4-tetrahydronaphthalen-1-yl}-3-methyl-1H-pyrazole-5-carboxamide], with 20%; and `O=C(NO)c1ccc2c(c1)CCCC2NC(=O)c1ccc(C(F)(F)F)cc1` (centres unmarked) [Compound I-20, N-hydroxy-5-{[4-(trifluoromethyl)benzoyl]amino}-5,6,7,8-tetrahydronaphthalene-2-carboxamide], with 30%; and `O=C(NO)c1ccc2c(c1)CCCC2NC(=O)C12CC3CC(CC(C3)C1)C2` (centres unmarked) [Compound I-21, N-{6-[(hydroxyamino)carbonyl]-1,2,3,4-tetrahydronaphthalen-1-yl}adamantane-1-carboxamide], with 20%.

For the molecule `Cc1oc(S(=O)(=O)N2CCCC2)cc1C(=O)NC1CCCc2cc(C(=O)NO)ccc21` (centres unmarked) [Compound I-22, N-{6-[(hydroxyamino)carbonyl]-1,2,3,4-tetrahydronaphthalen-1-yl}-2-methyl-5-(pyrrolidin-1-ylsulfonyl)-3-furamide], the inhibition at 0.412 µM was 28%. The figure for `O=C(NO)c1ccc2c(c1)CCCC2NC(=O)c1cc2ccccc2s1` (centres unmarked) [Compound I-24, N-{6-[(hydroxyamino)carbonyl]-1,2,3,4-tetrahydronaphthalen-1-yl}-1-benzothiophene-2-carboxamide] is 46%. Then `O=C(CC1C[C@@H]2CC[C@H]1C2)NC1CCCc2cc(C(=O)NO)ccc21` (stereo partly drawn) [Compound I-26, 5-{[(1S,4R)-bicyclo[2.2.1]hept-2-ylacetyl]amino}-N-hydroxy-5,6,7,8-tetrahydronaphthalene-2-carboxamide], with 21%.

In the case of `CC(=O)N/C(=C\c1ccccc1)C(=O)NC1CCCc2cc(C(=O)NO)ccc21` (centres unmarked) [Compound I-27, 5-{[(2Z)-2-(acetylamino)-3-phenylprop-2-enoyl]amino}-N-hydroxy-5,6,7,8-tetrahydronaphthalene-2-carboxamide], the inhibition at 0.412 µM was 11%.

With `O=C(NO)c1ccc2c(c1)CCCC2NC(=O)c1ccc2ncsc2c1` (centres unmarked) [Compound I-28, N-{6-[(hydroxyamino)carbonyl]-1,2,3,4-tetrahydronaphthalen-1-yl}-1,3-benzothiazole-6-carboxamide], the inhibition at 0.412 µM is -2%. For the molecule `O=C(NO)c1ccc2c(c1)CCCC2NC(=O)c1cn2cc(Cl)ccc2n1` (centres unmarked) [Compound I-29, 6-chloro-N-{6-[(hydroxyamino)carbonyl]-1,2,3,4-tetrahydronaphthalen-1-yl}imidazo[1,2-a]pyridine-2-carboxamide], the inhibition at 0.412 µM turned out to be 70%.
